System: conversion of 5-ALA to PpIX
Assay: FluoDerm fluorescence after 940 nm irradiation 8-53 h before 5-ALA, two subjects (Example 11)
Type: in vivo, human
Design: unit not given here
Experimental: In view of these promising results, another study with even longer delays before application of 5-ALA was performed. The back skin of two test subjects was irradiated with continuous wavelength and pulsed infrared light at 940 nm. These irradiations took place 50-53, 24-29, and 8-14 hours prior to the application of the 5-ALA. After a three-hour incubation period with the compound, a FluoDerm™ device was used to measure the fluorescence of the skin ([…]) a direct indication of the activity of 5-ALA. 5-ALA must penetrate the skin and then be converted to PpIX before any fluorescence increase can be observed. […] Conclusion: This preconditioning method uses a temperature-independent mechanism of action via cell signaling pathways as in photobiomodulation.

NCC(=O)CCC(=O)O [5-ALA, 5-aminolevulinic acid]
Fluoderm Reading (subject one, 14 hour time points, CW-940, 3 h incubation): 51.0
Fluoderm Reading (subject one, 14 hour time points, D50-940, 3 h incubation): 44.5
Fluoderm Reading (subject one, 24 hour time points, CW-940, 3 h incubation): 48.0
Fluoderm Reading (subject one, 24 hour time points, D50-940, 3 h incubation): 36.5
Fluoderm Reading (subject one, 50 hour time points, CW-940, 3 h incubation): 45.0
Fluoderm Reading (subject one, 50 hour time points, D50-940, 3 h incubation): 35.0
Fluoderm Reading (subject one, Control, Just 5-ALA, no irradiation): 37.0
Fluoderm Reading (subject two, 8 hour time points, CW-940, 3 h incubation): 44.0
Fluoderm Reading (subject two, 8 hour time points, D50-940, 3 h incubation): 49.0
Fluoderm Reading (subject two, 8 hour time points, S50-940, 3 h incubation): 51.0
Fluoderm Reading (subject two, 29 hour time points, CW-940, 3 h incubation): 47.0
Fluoderm Reading (subject two, 29 hour time points, D50-940, 3 h incubation): 52.0
Fluoderm Reading (subject two, 29 hour time points, S50-940, 3 h incubation): 47.5
Fluoderm Reading (subject two, 53 hour time points, CW-940, 3 h incubation): 55.0
Fluoderm Reading (subject two, 53 hour time points, D50-940, 3 h incubation): 46.5
Fluoderm Reading (subject two, 53 hour time points, S50-940, 3 h incubation): 55.0
Fluoderm Reading (subject two, Control, Just 5-ALA, no irradiation): 46.0

From patent US10632324B2, “Method for the treatment of skin tissues” (9127-4910 Quebec Inc., priority 2017, dated 2020)
